From US7276522B2, “4-(substituted cycloalkylmethyl) imidazole-2-thiones, 4-(substituted cycloalkenylmethyl) imidazole-2-thiones, 4-(substituted cycloalkylmethyl) imidazol-2-ones, 4-(substituted cycloalkenylmethyl) imidazol-2-ones and related compounds” (Allergan, Inc., priority 2002, dated 2007)

Experiments:
[1] = target: T1, alpha2B adrenergic receptor (Homo sapiens, UniProt P18089); experiment: Receptor Selection and Amplification Technology (RSAT) assay, alpha2B; type: cell-based; settings: for EC50: RSAT, NIH-3T3 cells, agonism, read-out: EC50, Alpha 2B; for Emax: fraction of maximal effect of standard agonist brimonidine, read-out: intrinsic activity, Alpha 2B
T1 construct: expressed in transfected cells; host or cells: NIH-3T3
T1 sequence (P18089 1-450): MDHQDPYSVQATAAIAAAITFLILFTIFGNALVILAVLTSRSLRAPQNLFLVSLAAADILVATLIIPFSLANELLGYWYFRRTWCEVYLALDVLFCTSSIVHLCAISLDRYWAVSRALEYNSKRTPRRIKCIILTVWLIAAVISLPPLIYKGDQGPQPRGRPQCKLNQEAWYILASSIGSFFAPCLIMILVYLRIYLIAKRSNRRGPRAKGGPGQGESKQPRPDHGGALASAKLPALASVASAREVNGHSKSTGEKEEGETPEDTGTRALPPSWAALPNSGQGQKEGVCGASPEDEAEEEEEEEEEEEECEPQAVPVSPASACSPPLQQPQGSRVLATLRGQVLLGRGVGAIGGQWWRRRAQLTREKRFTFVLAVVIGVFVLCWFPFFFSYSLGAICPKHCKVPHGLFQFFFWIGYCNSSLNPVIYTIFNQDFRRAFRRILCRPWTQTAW
Source text: (§1) The imidazole-2-thione compounds of the invention are agonists of alpha2 adrenergic receptors, particularly they tend to be specific or selective agonists of alpha2B and/or to a lesser extent alpha2C adrenergic receptors, in preference over alpha2A adrenergic receptors. […] Al., 1995, Pharmacol. Toxicol. 76, pp. 308-311 (incorporated herein by reference) and is also described below. Another reference pertinent to this assay is Conklin et al. (1993) Nature 363:274-6, also incorporated herein by reference.
(§2) Receptor Selection and Amplification Technology (RSAT) Assay
The RSAT assay measures a receptor-mediated loss of contact inhibition that results in selective proliferation of receptor-containing cells in a mixed population of confluent cells. The increase in cell number is assessed with an appropriate transfected marker gene such as β-galactosidase, the activity of which can be easily measured in a 96-well format. Receptors that activate the G protein, Gq, elicit this response. Alpha2 receptors, which normally couple to Gi, activate the RSAT response when coexpressed with a hybrid Gq protein that has a Gi receptor recognition domain, called Gq/i5.
NIH-3T3 cells are plated at a density of 2×10^6 cells in 15 cm dishes and maintained in Dulbecco's modified Eagle's medium supplemented with 10% calf serum. One day later, cells are cotransfected by calcium phosphate precipitation with mammalian expression plasmids encoding p-SV-β-galactosidase (5-10 μg), receptor (1-2 μg) and G protein (1-2 μg). 40 μg salmon sperm DNA may also be included in the transfection mixture. Fresh media is added on the following day and 1-2 days later, cells are harvested and frozen in 50 assay aliquots. Cells are thawed and 100 μl added to 100 μl aliquots of various concentrations of drugs in triplicate in 96-well dishes. Incubations continue 72-96 hr at 37° C. After washing with phosphate-buffered saline, β-galactosidase enzyme activity is determined by adding 200 μl of the chromogenic substrate (consisting of 3.5 mM o-nitrophenyl-β-D-galactopyranoside and 0.5% nonidet P-40 in phosphate buffered saline), incubating overnight at 30° C. and measuring optical density at 420 nm. The absorbance is a measure of enzyme activity, which depends on cell number and reflects a receptor-mediated cell proliferation. The EC50 and maximal effect of each drug at each alpha2 receptor is determined. The efficacy or intrinsic activity is calculated as a ratio of the maximal effect of the drug to the maximal effect of a standard full agonist for each receptor subtype. Brimonidine, also called UK14304, the chemical structure of which is shown below, is used as the standard agonist for the alpha2A, alpha2B and alpha2C receptors. […]

[2] = target: T2, alpha2C adrenergic receptor (Homo sapiens, UniProt P18825); experiment: Receptor Selection and Amplification Technology (RSAT) assay, alpha2C; type: cell-based; settings: NIH-3T3 cells, agonism, read-out: EC50, Alpha 2C
T2 construct: expressed in transfected cells; host or cells: NIH-3T3
T2 sequence (P18825 1-462): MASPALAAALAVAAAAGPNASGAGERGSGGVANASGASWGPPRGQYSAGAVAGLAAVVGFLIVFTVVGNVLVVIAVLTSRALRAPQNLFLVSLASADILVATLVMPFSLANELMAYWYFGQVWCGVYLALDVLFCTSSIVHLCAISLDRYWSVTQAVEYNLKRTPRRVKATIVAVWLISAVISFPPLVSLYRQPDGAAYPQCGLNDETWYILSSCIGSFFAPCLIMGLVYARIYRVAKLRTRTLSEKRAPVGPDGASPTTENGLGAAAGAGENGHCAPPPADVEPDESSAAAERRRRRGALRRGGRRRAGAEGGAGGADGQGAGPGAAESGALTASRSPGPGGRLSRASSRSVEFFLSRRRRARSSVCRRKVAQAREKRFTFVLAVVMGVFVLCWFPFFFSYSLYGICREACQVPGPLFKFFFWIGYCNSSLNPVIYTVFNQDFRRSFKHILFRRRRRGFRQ
Source text: as §1, §2
(§3) The RSAT assay measures a receptor-mediated loss of contact inhibition that results in selective proliferation of receptor-containing cells in a mixed population of confluent cells. The increase in cell number is assessed with an appropriate transfected marker gene such as β-galactosidase, the activity of which can be easily measured in a 96-well format. […]
(§4) NIH-3T3 cells are plated at a density of 2×10^6 cells in 15 cm dishes and maintained in Dulbecco's modified Eagle's medium supplemented with 10% calf serum. […] After washing with phosphate-buffered saline, β-galactosidase enzyme activity is determined by adding 200 μl of the chromogenic substrate (consisting of 3.5 mM o-nitrophenyl-β-D-galactopyranoside and 0.5% nonidet P-40 in phosphate buffered saline), incubating overnight at 30° C. and measuring optical density at 420 nm. […]

[3] = system: rats with surgical ligation of L5 and L6 spinal nerves (tactile allodynia); experiment: Chung model of neuropathic pain (tactile allodynia, von Frey hairs); type: in vivo, rat; settings: 30 min after dosing
Source text: Alleviation of Chronic Pain
A model in accordance with Kim and Chung 1992, Pain […], pp 355-363 (Chung model), for chronic pain (in particular peripheral neuropathy) involves the surgical ligation of the L5 (and optionally the L6) spinal nerves on one side in experimental animals. Rats recovering from the surgery gain weight and display a level of general activity similar to that of normal rats. However, these rats develop abnormalities of the foot, wherein the hindpaw is moderately everted and the toes are held together. More importantly, the hindpaw on the side affected by the surgery appears to become sensitive to pain from low-threshold mechanical stimuli, such as that producing a faint sensation of touch in a human, within about 1 week following surgery. This sensitivity to normally non-painful touch is called “tactile allodynia” and lasts for at least two months. The response includes lifting the affected hindpaw to escape from the stimulus, licking the paw and holding it in the air for many seconds. None of these responses is normally seen in the control group.
Rats are anesthetized before surgery. The surgical site is shaved and prepared either with betadine or Novacaine. Incision is made from the thoracic vertebra X111 down toward the sacrum. Muscle tissue is separated from the spinal vertebra (left side) at the L4-S2 levels. The L6 vertebra is located and the transverse process is carefully removed with a small rongeur to expose the L4-L6 spinal nerves. The L5 and L6 spinal nerves are isolated and tightly ligated with 6-0 silk thread. The same procedure is done on the right side as a control, except no ligation of the spinal nerves is performed.
A complete hemostasis is confirmed, then the wounds are sutured. A small amount of antibiotic ointment is applied to the incised area, and the rat is transferred to the recovery plastic cage under a regulated heat-temperature lamp. On the day of the experiment, at least seven days after the surgery, typically six rats per test group are administered the test drugs by intraperitoneal (i.p.) injection or oral gavage. For i.p. injection, the compounds are formulated in approximately 10 to 50% DMSO and given in a volume of 1 ml/kg body weight.
Tactile allodynia is measured prior to and 30 minutes after drug administration using von Frey hairs that are a series of fine hairs with incremental differences in stiffness. Rats are placed in a plastic cage with a wire mesh bottom and allowed to acclimate for approximately 30 minutes. The von Frey hairs are applied perpendicularly through the mesh to the mid-plantar region of the rats' hindpaw with sufficient force to cause slight buckling and held for 6-8 seconds. The applied force has been calculated to range from 0.41 to 15.1 grams. If the paw is sharply withdrawn, it is considered a positive response. A normal animal will not respond to stimuli in this range, but a surgically ligated paw will be withdrawn in response to a 1-2 gram hair. The 50% paw withdrawal threshold is determined using the method of Dixon, W. J., Ann. Rev. Pharmacol. Toxicol. 20:441-462 (1980). The post-drug threshold is compared to the pre-drug threshold and the percent reversal of tactile sensitivity is calculated based on a normal threshold of 15.1 grams. The results are expressed in percent (%) MPE, where the MPE value reflects the percentage reversal of pain threshold to that of a normal animal (100%). Table 3 below indicates results of this test with Compounds 1, 7 and 29 of the invention, administered i.p. and in oral doses.

[4] = target: T3, alpha2A adrenergic receptor (Homo sapiens, UniProt P08913); experiment: Receptor Selection and Amplification Technology (RSAT) assay, alpha2A; type: cell-based; settings: NIH-3T3 cells, agonism, read-out: EC50, Alpha 2A
T3 sequence (P08913 1-465): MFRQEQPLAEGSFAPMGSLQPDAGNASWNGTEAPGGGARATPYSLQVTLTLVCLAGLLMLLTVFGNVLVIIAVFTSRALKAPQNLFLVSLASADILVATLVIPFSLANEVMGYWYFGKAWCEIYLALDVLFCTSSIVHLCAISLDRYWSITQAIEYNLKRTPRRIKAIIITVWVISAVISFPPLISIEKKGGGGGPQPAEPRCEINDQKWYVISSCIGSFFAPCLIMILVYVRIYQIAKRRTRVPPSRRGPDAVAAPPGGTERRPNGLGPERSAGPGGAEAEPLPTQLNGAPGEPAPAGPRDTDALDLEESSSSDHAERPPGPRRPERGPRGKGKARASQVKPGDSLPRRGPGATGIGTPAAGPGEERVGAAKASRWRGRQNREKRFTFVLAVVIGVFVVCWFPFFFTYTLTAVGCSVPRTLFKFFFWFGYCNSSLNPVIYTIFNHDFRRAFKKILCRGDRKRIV
Source text: as §1, §2, §3, §4

EC50 [1]	Emax [1]	EC50 [2]	EC50 [4]	Compound	% Pain Reversal ± SEM ([3]; 30 μg/kg p.o.)	% Pain Reversal ± SEM ([3]; 100 μg/kg p.o.)	% Pain Reversal ± SEM ([3]; 300 μg/kg p.o.)	% Pain Reversal ± SEM ([3]; 10 μg/kg i.p.)	% Pain Reversal ± SEM ([3]; 30 μg/kg i.p.)	% Pain Reversal ± SEM ([3]; 100 μg/kg i.p.)	% Pain Reversal ± SEM ([3]; 300 μg/kg i.p.)
0.092 µM	99%	> 10 µM	> 10 µM	Cc1ccc2c(n1)CC(Cc1c[nH]c(=S)[nH]1)CC2 (single isomer, unassigned) [Compound 202, 4-(2-methyl-5,6,7,8-tetrahydro-quinolin-7-ylmethyl)-1,3-dihydro-imidazole-2-thione]	28 ± 8.5%	49 ± 7.2%	75 ± 8.1%				
0.113 µM	104%	> 10 µM	> 10 µM	Cc1ccc2c(n1)CC(Cc1c[nH]c(=S)[nH]1)CC2 (racemic) [Compound 201, 4-(2-methyl-5,6,7,8-tetrahydro-quinolin-7-ylmethyl)-1,3-dihydro-imidazole-2-thione]		64 ± 7%		0.65 ± 0.91%	42 ± 5.7%	75.1 ± 5.7%	82.5 ± 7.4%
